# Reference: US20030050274A1, “Composition containing S-adenosylmethionine for treating or preventing insulin resistance syndrome” (priority 2001, published 2003)
# Key:
# Assay type in all cases: in vivo, rat
# [1] = system: OLETF (Otsuka Long Evans Tokushima Fatty) rats; assay: Weight change of OLETF rats administered S-adenosylmethionine; design: Body Weight: dose or concentration left out as unconfirmed
# Procedure: (§1) 14 six-week-old OLETF (Otsuka Long Evans Tokushima Fatty) rats (Otsuka Research Lab., Tokushima, bred for use as a non-insulin-dependent diabetes mellitus model) were evenly divided into two injection groups. The rats of two groups were administered into the abdominal cavity either with S-adenosylmethionine (SAMe(+) group) or with a vehicle containing L-lysine (SAMe(−) group) at a daily dose of 15 mg/kg body weight for a duration of up to 19 weeks. 7 six-week-old LETO (Long Evans Tokushima Otsuka) rats (Otsuka Research Lab., Tokushima, normal rats) were used as a normal control group (Control group). The rats of each group were examined for their weight changes, and checked by way of conducting glucose load tests and euglycemic hyperinsulinemic clamp tests to measure the effect of S-adenosylmethionine on the insulin secretion and insulin sensitivity.
# (§2) Test data were analyzed to represent each test result in the form of mean±standard error mean. Differences in weight changes among the groups were analyzed by ANOVA with Least Significance Difference using SPSS/PC 10.0, and the differences in glucose load and clamp test results, by the Kruskall-Wallis test and checked using the Mann-Whitney probation method. The significance level was set at a p value of 0.05 or below.
# (1-1) Weight Change At 0, 1, 2, 4, 8, 13, 16 and 19 weeks after the administration had begun, the weight changes of the rats of the three groups were recorded.
# SD-based rats = assay: Toxicity of orally administered S-adenosylmethionine
# Procedure: 8 six-week-old, specific pathogen-free SD-based rats were evenly divided into four groups, which were orally administered with S-adenosylmethionine suspended in a 0.5% methylcellulose solution at a dose of 50, 100, 200 and 500 mg SAMe/kg body weight, respectively. […] Every 12 hours thereafter, the weight changes of the rats were recorded to examine the effect of S-adenosylmethionine. Further, on the 10th day, the rats were sacrificed and the internal organs were visually examined.
# [2] = system: OLETF (Otsuka Long Evans Tokushima Fatty) rats; assay: Glucose load test
# Procedure: as §1, §2
# On the 19th week after the administration had begun, the rats were starved for 6 hours and a 35% glucose solution (0.5 g glucose/kg body weight) was bolus-infused into each rat through the tail artery. At 0, 2, 6, 8, 10, 15, 20 and 30 minites after the infusion, a 200 μl blood sample was taken from the tail artery of each rat, centrifuged and the plasma supernatant was separated. The blood glucose level was determined by employing YSI 2300.
# In addition, the glucose loss rate ( % /min) was calculated from the inclination of log-converted values of glucose concentrations measured during 2 to 15 minutes after the infusion. The glucose loss rates of the SAM(+) and SAM(−) groups were similar at 3.69±0.29 and 3.23±0.32%/min, respectively, while that of the Control group was much higher at 5.13±0.29%/min.
# [3] = system: OLETF (Otsuka Long Evans Tokushima Fatty) rats; assay: Euglycemic hyperinsulinemic clamp test
# Procedure: as §1, with “The rats of each group were examined for their weight changes, and checked by way of conducting glucose load tests and euglycemic hyperinsulinemic clamp tests to measure the effect of S-adenosylmethionine on the insulin secretion and insulin sensitivity.” left out
# Test data were analyzed to represent each test result in the form of mean±standard error mean. Differences in weight changes among the groups were analyzed by ANOVA with Least Significance Difference using SPSS/PC 10.0, and the differences in glucose load and clamp test results, by the Kruskall-Wallis test and checked using the Mann-Whitney probation method. […]
# Based on the fact that the amount of glucose infused to maintain the steady basal level is equal to the amount of glucose consumed in the body, insulin resistance of each group was determined from the mean glucose infusion rate (mg/kg/min) during the clamp test period. […]
# [4] = measurement time period 0-30 min after the infusion
compound,measurement,setting,value
C[S+](CC[C@H](N)C(=O)[O-])C[C@H]1O[C@@H](n2cnc3c(N)ncnc32)[C@H](O)[C@@H]1O (stereo partly drawn) [S-adenosylmethionine],ratio of weight gain as compared with the SAM(−) group,"[1]; OLETF rats, 15 mg/kg/day into abdominal cavity, up to 19 weeks",significantly lower
same,Body Weight,[1]; week 0,220 g
same,Body Weight,[1]; week 1,299 g
same,Body Weight,[1]; week 2,343 g
same,Body Weight,[1]; week 4,403 g
same,Body Weight,[1]; week 8,464 g
same,Body Weight,[1]; week 13,498 g
same,Body Weight,[1]; week 16,528 g
same,Body Weight,[1]; week 19,565 g
same,toxicity,"SD-based rats; rat, oral, dose of 500 mg/kg, observed 10 days",no toxicity
same,autopsy: pathological abnormality of internal organs,"SD-based rats; rats, oral 50-500 mg/kg, 10th day",did not develop any pathological abnormality
same,weight loss,"SD-based rats; rats, oral 50-500 mg/kg, 10 day test period",no weight loss
same,survival at day 10,"SD-based rats; rats, oral single dose 50, 100, 200 and 500 mg/kg",All the rats were alive
same,blood glucose levels measured at 6 and 8 minutes after the infusion as compared with the SAM(−) group,"[2]; OLETF rats, 19th week of 15 mg/kg/day",significantly lower
same,Blood Glucose Level,"[2]; OLETF rats, 19th week of 15 mg/kg/day, 0 min after 0.5 g/kg glucose infusion",118 mg/dL
same,Blood Glucose Level,"[2]; OLETF rats, 19th week of 15 mg/kg/day, 2 min after 0.5 g/kg glucose infusion",368 mg/dL
same,Blood Glucose Level,"[2]; OLETF rats, 19th week of 15 mg/kg/day, 6 min after 0.5 g/kg glucose infusion",291 mg/dL
same,Blood Glucose Level,"[2]; OLETF rats, 19th week of 15 mg/kg/day, 8 min after 0.5 g/kg glucose infusion",265 mg/dL
same,Blood Glucose Level,"[2]; OLETF rats, 19th week of 15 mg/kg/day, 10 min after 0.5 g/kg glucose infusion",257 mg/dL
same,Blood Glucose Level,"[2]; OLETF rats, 19th week of 15 mg/kg/day, 15 min after 0.5 g/kg glucose infusion",224 mg/dL
same,Blood Glucose Level,"[2]; OLETF rats, 19th week of 15 mg/kg/day, 20 min after 0.5 g/kg glucose infusion",204 mg/dL
same,Blood Glucose Level,"[2]; OLETF rats, 19th week of 15 mg/kg/day, 30 min after 0.5 g/kg glucose infusion",172 mg/dL
same,glucose loss rate,"[2]; from inclination of log-converted glucose concentrations, 2 to 15 minutes after the infusion",3.69±0.29 %/min
same,area obtained by integrating the blood glucose level curve,[2]; [4],234±9.6 (mg/dl).min
same,"area under blood glucose level curve, difference among SAM(+), SAM(−) and Control groups",[2]; [4],no significant differences
same,mean glucose infusion rate,"[3]; 19th week of 15 mg/kg/day, insulin 12 mU/kg/min, clamp period 60 to 120 min",16.7 ± 1.70 mg/kg/min
same,insulin resistance,[3]; conclusion from clamp test,effectively lowers the insulin resistance
